Experimental data published in ChEMBL document CHEMBL1201862, “PubChem BioAssay data set” (2004).
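Results reflect a 48-hour exposure of cells in 96-well plates to compound at five concentrations. The concentration for 50% growth inhibition is given as GI50.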 The source made the active and inactive calls. Cut-off read from the data, not from the text of the source: active = GI50 up to about 1.1 µM and inactive = higher.

What was measured:
Experiment in all cases: NCI-60 cell line screen, 48 h
BT-549 = tested on: BT-549
LXFL 529 = tested on: LXFL 529
KM-20L2 = tested on: KM-20L2
SNB-78 = tested on: SNB-78
M19-MEL = tested on: M19-MEL
DMS-273 = tested on: DMS-273
HOP-18 = tested on: HOP-18
XF498 = tested on: XF498
RXF 631 = tested on: RXF 631

CO[C@H]1[C@@H](O)[C@@H](O)O[C@@H](O[C@H]2CC[C@@]3(C)[C@H](CC[C@@H]4[C@@H]3[C@H](O)C[C@]3(C)[C@@H](C5=CC(=O)OC5)CC[C@]43O)C2)[C@@H]1O
GI50 (BT-549): 0.151 µM (active)

O=c1c2cc([N+](=O)[O-])ccc2n2n1Cc1ccccc1C2
GI50 (BT-549): 76.2 µM (inactive)

COc1ccc(C[C@H](N)C(=O)N2C[C@@H](CO)C[C@@H](n3cnc4c(N(C)C)ncnc43)C2)cc1
GI50 (LXFL 529): > 100 µM (inactive)
GI50 (KM-20L2): > 100 µM (inactive)
GI50 (SNB-78): > 100 µM (inactive)
GI50 (M19-MEL): > 100 µM (inactive)
GI50 (DMS-273): > 100 µM (inactive)
GI50 (HOP-18): > 100 µM (inactive)

O=C1c2ccccc2-c2c1c1ccccc1c(=O)n2Cc1ccco1
GI50 (BT-549): > 100 µM (inactive)

CC(=O)Oc1c2c(c(O)c3ccccc13)C(n1cnc3c(ncn3C3OC(CO)C4OC(C)(C)OC43)c1=N)CCC2 (stereo not drawn)
GI50 (KM-20L2): 21.6 µM (inactive)
GI50 (SNB-78): 23 µM (inactive)
GI50 (M19-MEL): 11.6 µM (inactive)
GI50 (DMS-273): 18.1 µM (inactive)
GI50 (HOP-18): 20.3 µM (inactive)

COc1cc2c(cc1O)NC(=O)[C@@H]1C[C@@H](O)CN1C2=O
GI50 (BT-549): 86.1 µM (inactive)

CN(C)c1ccc(C2CC(c3ccc4ccccc4c3O)=NN2)cc1 (stereo not drawn)
GI50 (BT-549): 39.1 µM (inactive)

CCN(CC)CC(C)C(=O)/C=C/c1ccc(C)cc1 (stereo not drawn)
GI50 (LXFL 529): 1.76 µM (inactive)
GI50 (KM-20L2): 10 µM (inactive)
GI50 (SNB-78): 4.59 µM (inactive)
GI50 (M19-MEL): 1.67 µM (inactive)
GI50 (DMS-273): 2.23 µM (inactive)
GI50 (XF498): 1.54 µM (inactive)
GI50 (HOP-18): 10.5 µM (inactive)

Nc1ccc(C(=O)N/C(=C\C=C\c2ccco2)c2nc3c(O)nc(S)nc3[nH]2)cc1
GI50 (LXFL 529): > 100 µM (inactive)
GI50 (KM-20L2): 87.1 µM (inactive)
GI50 (SNB-78): > 100 µM (inactive)
GI50 (M19-MEL): > 100 µM (inactive)
GI50 (RXF 631): > 100 µM (inactive)
GI50 (DMS-273): > 100 µM (inactive)
GI50 (XF498): > 100 µM (inactive)

COC(=O)[C@@H](O)[C@]1(C(=O)OC)C2O[C@@H](OC)[C@@H]1CCCCCC[C@H]2O
GI50 (BT-549): > 100 µM (inactive)

COc1cc(C=O)cc(O)c1O
GI50 (LXFL 529): > 100 µM (inactive)
GI50 (KM-20L2): > 100 µM (inactive)
GI50 (SNB-78): > 100 µM (inactive)
GI50 (M19-MEL): > 100 µM (inactive)
GI50 (DMS-273): > 100 µM (inactive)

CCSCN(C)c1nc(N(C)C)nc(N(C)C)n1
GI50 (LXFL 529): 45.3 µM (inactive)
GI50 (KM-20L2): 55 µM (inactive)
GI50 (SNB-78): > 100 µM (inactive)
GI50 (M19-MEL): 64 µM (inactive)
GI50 (DMS-273): 38.6 µM (inactive)
GI50 (HOP-18): > 100 µM (inactive)

CC(=O)Nc1nnc(S(=O)(=O)NC(=S)Nc2ccc(Cl)cc2)s1
GI50 (BT-549): > 100 µM (inactive)

O=C(Cc1nc2ccccc2o1)C(=O)Nc1ccccc1C(F)(F)F
GI50 (LXFL 529): > 100 µM (inactive)
GI50 (KM-20L2): > 100 µM (inactive)
GI50 (SNB-78): > 100 µM (inactive)
GI50 (M19-MEL): > 100 µM (inactive)
GI50 (RXF 631): > 100 µM (inactive)
GI50 (DMS-273): > 100 µM (inactive)
GI50 (XF498): > 100 µM (inactive)

c1ccc2c(c1)c(N1CCCCC1)cc1nc3c(cc(N4CCCCC4)c4ccccc43)nc12
GI50 (BT-549): > 100 µM (inactive)

CNc1ccc(C(=O)CC(O)CCC(C)C2OC(=O)CC(O)CC(=O)CC(O)CC(O)CC(O)CC(O)CC3(O)CC(O)C(C(=O)NCCN(C)C)C(CC(OC4OC(C)C(O)C(NC(=O)CN5CCN(C)CC5)C4O)\C=C/C=C\C=C/C=C/C=C/C=C\C=C/C2C)O3)cc1 (stereo not drawn)
GI50 (BT-549): 11.2 µM (inactive)

Cc1ccc([N+](=O)[O-])cc1S(=O)(=O)Nc1ccc(C2=NN(C(=O)c3ccccc3)C(c3ccccc3)C2)cc1 (stereo not drawn)
GI50 (BT-549): 22.6 µM (inactive)

COc1ccc(C(=O)O)c(Br)c1OCc1ccccc1
GI50 (LXFL 529): > 100 µM (inactive)
GI50 (KM-20L2): > 100 µM (inactive)
GI50 (SNB-78): > 100 µM (inactive)
GI50 (M19-MEL): > 100 µM (inactive)
GI50 (DMS-273): > 100 µM (inactive)
GI50 (XF498): > 100 µM (inactive)

COc1ccc(CNc2nc(NCc3ccc(OC)cc3)nc(NC3CCCCC3)n2)cc1
GI50 (BT-549): 4.08 µM (inactive)

C=CCC1CC(n2cc(C)c(=O)[nH]c2=O)OC1CO[Si](C)(C)C(C)(C)C (stereo not drawn)
GI50 (BT-549): 16 µM (inactive)

Cc1ccc(SSc2ccc(C)cc2C(=O)O)c(C(=O)O)c1
GI50 (LXFL 529): > 100 µM (inactive)
GI50 (KM-20L2): > 100 µM (inactive)
GI50 (SNB-78): > 100 µM (inactive)
GI50 (M19-MEL): > 100 µM (inactive)
GI50 (RXF 631): > 100 µM (inactive)
GI50 (DMS-273): > 100 µM (inactive)

C1CNCCNCCNCCN1
GI50 (LXFL 529): > 100 µM (inactive)
GI50 (KM-20L2): 82.6 µM (inactive)
GI50 (SNB-78): > 100 µM (inactive)
GI50 (M19-MEL): > 100 µM (inactive)
GI50 (DMS-273): 53.8 µM (inactive)
GI50 (XF498): 0.14 µM (active)
GI50 (HOP-18): > 100 µM (inactive)

CC1=CC(/C=C(\C)CCCc2ccoc2)C2(OC(=O)C(C)=C2O)[C@H]2C1CC[C@@H]2C (stereo partly drawn)
GI50 (LXFL 529): 18.7 µM (inactive)
GI50 (SNB-78): 30.5 µM (inactive)
GI50 (M19-MEL): 29 µM (inactive)
GI50 (DMS-273): > 10 µM (inactive)
GI50 (HOP-18): 14.2 µM (inactive)

Cc1ccc2c(c1)C1(C)OC(CC(N)C1O)O2 (stereo not drawn)
GI50 (M19-MEL): > 100 µM (inactive)
GI50 (DMS-273): > 100 µM (inactive)
GI50 (HOP-18): > 100 µM (inactive)

Cc1cc(C)c(P2C(=C(O[Si](C(C)C)(C(C)C)C(C)C)C(C)(C)C)C2(c2ccccc2)c2ccccc2)c(C)c1 (stereo not drawn)
GI50 (BT-549): > 100 µM (inactive)
